Columns and labels:
Assay type in all cases: cell-based
[1] = target: T1, Bone morphogenetic protein 1 (Homo sapiens, UniProt P13497); experiment: Inhibition of C-terminal FLAG-6x-His epitope tagged and N-terminal human RAGE signal sequence tagged human BMP1 (23 to 721 amino acids) expressed in CHO-E1 cells pre-incubated for 10 mins before promyostatin peptide substrate addition and measured after 60 mins using 0.5 nM BMP1 by FRET based assay
T1 sequence (P13497 whole entry): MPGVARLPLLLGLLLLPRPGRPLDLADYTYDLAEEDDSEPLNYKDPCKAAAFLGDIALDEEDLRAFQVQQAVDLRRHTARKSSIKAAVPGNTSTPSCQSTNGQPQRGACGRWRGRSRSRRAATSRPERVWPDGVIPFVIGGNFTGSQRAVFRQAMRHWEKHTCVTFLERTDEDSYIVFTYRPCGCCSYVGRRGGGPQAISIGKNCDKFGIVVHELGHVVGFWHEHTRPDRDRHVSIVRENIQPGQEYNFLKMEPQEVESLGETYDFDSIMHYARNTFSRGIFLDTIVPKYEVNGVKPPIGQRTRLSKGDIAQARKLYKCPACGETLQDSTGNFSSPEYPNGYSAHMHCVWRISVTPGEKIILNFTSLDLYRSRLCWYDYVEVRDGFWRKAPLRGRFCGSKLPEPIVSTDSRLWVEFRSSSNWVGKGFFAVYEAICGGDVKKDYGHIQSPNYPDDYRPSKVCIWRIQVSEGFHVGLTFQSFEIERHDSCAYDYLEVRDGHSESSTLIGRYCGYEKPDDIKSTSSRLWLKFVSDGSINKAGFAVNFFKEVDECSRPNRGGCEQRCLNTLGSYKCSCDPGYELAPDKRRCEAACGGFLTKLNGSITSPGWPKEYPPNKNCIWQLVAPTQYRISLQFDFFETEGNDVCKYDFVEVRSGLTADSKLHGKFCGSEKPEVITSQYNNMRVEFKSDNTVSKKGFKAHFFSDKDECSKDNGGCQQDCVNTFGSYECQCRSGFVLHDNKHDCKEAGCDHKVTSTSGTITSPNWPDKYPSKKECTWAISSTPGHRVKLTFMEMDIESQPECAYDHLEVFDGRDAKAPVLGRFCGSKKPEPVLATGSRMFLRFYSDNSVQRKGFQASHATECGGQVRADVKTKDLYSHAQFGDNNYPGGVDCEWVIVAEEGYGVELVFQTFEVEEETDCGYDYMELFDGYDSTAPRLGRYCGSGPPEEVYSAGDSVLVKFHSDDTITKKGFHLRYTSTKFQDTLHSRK

[2] = target: T1, Bone morphogenetic protein 1; experiment: Inhibition of C-terminal FLAG-6x-His epitope tagged and N-terminal human RAGE signal sequence tagged human BMP1 (23 to 721 amino acids) expressed in CHO-E1 cells pre-incubated for 10 mins before promyostatin peptide substrate addition and measured after 30 mins using 50 nM BMP1 by FRET based assay
Tolloid-like protein 1 = Tolloid-like protein 1 (Homo sapiens, UniProt O43897, I156V/N221S/V284A); experiment: Inhibition of recombinant human TLL1 I156V/N221S/V284A mutant expressed in CHOE1A cells pre-incubated for 10 mins before promyostatin peptide substrate addition and measured after 60 mins by FRET based assay
Tolloid-like protein 2 = target: T2, Tolloid-like protein 2 (Homo sapiens, UniProt Q9Y6L7); experiment: Inhibition of C-terminal Avi-6x-His epitope tagged and N-terminal human RAGE signal sequence tagged recombinant human TLL2 (26 to 1015 amino acids) expressed in CHOE1A cells incubated for 60 mins with promyostatin peptide substrate by FRET based assay
T2 sequence (Q9Y6L7 whole entry): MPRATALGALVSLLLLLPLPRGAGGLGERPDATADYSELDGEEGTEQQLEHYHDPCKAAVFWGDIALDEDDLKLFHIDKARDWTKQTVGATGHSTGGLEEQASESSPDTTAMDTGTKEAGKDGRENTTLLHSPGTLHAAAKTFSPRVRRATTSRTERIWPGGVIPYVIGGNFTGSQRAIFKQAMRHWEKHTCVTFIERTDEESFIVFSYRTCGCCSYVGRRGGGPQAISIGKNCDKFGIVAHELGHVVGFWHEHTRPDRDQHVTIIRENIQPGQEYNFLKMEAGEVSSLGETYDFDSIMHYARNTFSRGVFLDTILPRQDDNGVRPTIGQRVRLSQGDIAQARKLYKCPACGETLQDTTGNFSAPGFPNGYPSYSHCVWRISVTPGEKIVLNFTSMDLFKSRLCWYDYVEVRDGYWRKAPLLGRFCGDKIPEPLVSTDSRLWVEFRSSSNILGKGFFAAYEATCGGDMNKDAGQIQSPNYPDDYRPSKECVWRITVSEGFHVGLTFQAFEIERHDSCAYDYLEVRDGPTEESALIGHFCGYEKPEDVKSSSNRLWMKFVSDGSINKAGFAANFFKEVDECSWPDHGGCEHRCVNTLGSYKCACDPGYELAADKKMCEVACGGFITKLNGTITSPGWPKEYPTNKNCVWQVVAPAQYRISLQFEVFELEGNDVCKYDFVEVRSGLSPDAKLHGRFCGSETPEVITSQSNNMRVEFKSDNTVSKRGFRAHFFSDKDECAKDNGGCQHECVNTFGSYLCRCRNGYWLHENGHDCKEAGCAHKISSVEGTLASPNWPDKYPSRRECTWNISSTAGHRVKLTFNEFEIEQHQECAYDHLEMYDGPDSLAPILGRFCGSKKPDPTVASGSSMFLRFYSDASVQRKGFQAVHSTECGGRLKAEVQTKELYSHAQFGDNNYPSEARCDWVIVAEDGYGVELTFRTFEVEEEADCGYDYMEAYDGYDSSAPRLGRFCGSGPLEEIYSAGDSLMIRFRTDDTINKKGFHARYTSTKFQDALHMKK

Chain of Tolloid-like protein 1 (O43897 148-1013 I156V/N221S/V284A limits assumed): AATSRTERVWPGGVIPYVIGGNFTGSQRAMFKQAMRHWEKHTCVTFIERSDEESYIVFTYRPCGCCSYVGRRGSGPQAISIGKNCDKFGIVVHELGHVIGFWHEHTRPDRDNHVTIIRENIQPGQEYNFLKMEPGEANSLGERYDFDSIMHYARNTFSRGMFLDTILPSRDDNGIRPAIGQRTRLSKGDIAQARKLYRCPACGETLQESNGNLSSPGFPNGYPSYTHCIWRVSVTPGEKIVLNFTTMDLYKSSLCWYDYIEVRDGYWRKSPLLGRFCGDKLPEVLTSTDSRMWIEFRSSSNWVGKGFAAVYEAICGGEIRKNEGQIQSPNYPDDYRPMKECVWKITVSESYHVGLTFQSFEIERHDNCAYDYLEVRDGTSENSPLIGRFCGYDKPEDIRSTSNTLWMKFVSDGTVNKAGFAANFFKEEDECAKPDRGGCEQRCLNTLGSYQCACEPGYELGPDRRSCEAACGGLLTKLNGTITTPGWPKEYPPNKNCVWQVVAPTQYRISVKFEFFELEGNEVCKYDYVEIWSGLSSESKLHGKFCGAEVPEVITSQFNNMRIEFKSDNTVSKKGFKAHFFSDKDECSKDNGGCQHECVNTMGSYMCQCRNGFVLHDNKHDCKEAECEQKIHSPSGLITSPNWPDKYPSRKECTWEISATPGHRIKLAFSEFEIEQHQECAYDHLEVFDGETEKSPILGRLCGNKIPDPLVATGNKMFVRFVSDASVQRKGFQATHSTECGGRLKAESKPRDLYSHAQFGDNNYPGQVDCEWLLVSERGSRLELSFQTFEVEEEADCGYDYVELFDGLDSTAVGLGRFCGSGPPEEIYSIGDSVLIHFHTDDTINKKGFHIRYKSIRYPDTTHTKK

| SMILES | IC50 [1] | IC50 [2] | IC50 (Tolloid-like protein 1) | IC50 (Tolloid-like protein 2) | pIC50 [1] |
| --- | --- | --- | --- | --- | --- |
| O=CN(O)C[C@@H](CCCc1ccccc1)C(=O)NCNC(=O)c1ccc(-c2ccccc2)o1 | < 126 nM | < 200 nM | < 398 nM | < 794 nM |  |
| CCCCC[C@@H](C(=O)NCNC(=O)c1ccc(-c2cccc(/C(N)=N/O)c2)o1)[C@@H](CC)N(O)C=O | < 126 nM | < 200 nM | < 398 nM | < 794 nM |  |
| CCCCC[C@@H](C(=O)NCNC(=O)c1ccc(-c2ccc(OC)c(C(=O)O)c2)o1)[C@@H](CC)N(O)C=O | < 126 nM | < 200 nM | < 398 nM | < 794 nM |  |
| CCCCC[C@H](CN(O)C=O)C(=O)NCNC(=O)c1ccc(-c2ccc3c(c2)S(=O)(=O)NC3)o1 | < 126 nM | < 200 nM | < 398 nM | < 794 nM |  |
| CCCCC[C@H](CN(O)C=O)C(=O)NCNC(=O)c1ccc(-c2cccc(P(C)(=O)OCC)c2)o1 (some centres not stated) | < 126 nM | < 200 nM | < 398 nM | < 794 nM |  |
| CCCCC[C@H](CN(O)C=O)C(=O)NCNC(=O)c1ccc(-c2ccccc2C(=O)OC)o1 | < 126 nM | < 200 nM | < 398 nM | < 794 nM |  |
| CCCCC[C@@H](C(=O)NCNC(=O)c1ccc(-c2cccc(OCCC)c2)o1)[C@@H](CC)N(O)C=O | < 126 nM | < 200 nM | < 398 nM | < 794 nM |  |
| CCCCC[C@H](CN(O)C=O)C(=O)NCNC(=O)c1ccc(-c2ccc3cn(C)nc3c2)o1 | < 126 nM | < 200 nM | < 398 nM | < 794 nM |  |
| CCCCC[C@H](CN(O)C=O)C(=O)NCNC(=O)c1ccc(-c2cccc(P(=O)(OC)OC)c2)o1 | < 126 nM | < 200 nM | < 398 nM | < 794 nM |  |
| CCCCC[C@H](CN(O)C=O)C(=O)NCNC(=O)c1ccc(-c2cccc(OCCN3CCCC3)c2)o1 | < 126 nM | < 200 nM | < 398 nM | < 794 nM |  |
| CCCCC[C@H](CN(O)C=O)C(=O)NCNC(=O)c1ccc(-c2ccc(C#N)cc2)o1 | < 126 nM | < 200 nM | < 398 nM | < 794 nM |  |
| CCCCC[C@H](CN(O)C=O)C(=O)NCNC(=O)c1ccc(-c2cccc(C(=O)OC(C)(C)C)c2)o1 | < 126 nM | < 200 nM | < 398 nM | < 794 nM |  |
| CCCCC[C@@H](C(=O)NCNC(=O)C1CCC(c2ccccc2)O1)[C@@H](CC)N(O)C=O (some centres not stated) | < 126 nM | < 200 nM | < 398 nM | < 794 nM |  |
| CCCCC[C@H](CN(O)C=O)C(=O)NCNC(=O)c1ccc(-c2ccccc2O)o1 | < 126 nM | < 200 nM | < 398 nM | < 794 nM |  |
| CCCCC[C@H](CN(O)C=O)C(=O)NCNC(=O)c1ccc(-c2ccc(C)c(C(=O)O)c2)o1 | < 126 nM | < 200 nM | < 398 nM | < 794 nM |  |
| CCCCC[C@H](CN(O)C=O)C(=O)NCNC(=O)c1ccc(-c2cncc(OC)c2)o1 | < 126 nM | < 200 nM | < 398 nM | < 794 nM |  |
| CCCCC[C@@H](C(=O)NCNC(=O)c1ccc(-c2ccccc2)o1)[C@@H](CO)N(O)C=O | < 126 nM | < 200 nM | < 398 nM | < 794 nM |  |

| SMILES | IC50 [1] | IC50 [2] | IC50 (Tolloid-like protein 1) | IC50 (Tolloid-like protein 2) | pIC50 [1] |
| --- | --- | --- | --- | --- | --- |
| CS(=O)(=O)c1cccc(-c2ccc(C(=O)NCNC(=O)[C@H](CCc3ccccc3)CN(O)C=O)o2)c1 | < 126 nM | < 200 nM | < 398 nM | < 794 nM |  |
| CCCCC[C@H](CN(O)C=O)C(=O)NCNC(=O)c1ccc(-c2ccccc2OC)o1 | < 126 nM | < 200 nM | < 398 nM | < 794 nM |  |
| CCCCC[C@H](CN(O)C=O)C(=O)NCNC(=O)c1ccc(-c2ccc(F)c(OC)c2)o1 | < 126 nM | < 200 nM | < 398 nM | < 794 nM |  |
| CCCCC[C@@H](C(=O)NCNC(=O)c1ccc(-c2cc(OCC)cc(P(=O)(O)O)c2)o1)[C@@H](CC)N(O)C=O.NC(CO)(CO)CO |  |  |  |  | > 6.9 |
| CCCCC[C@H](CN(O)C=O)C(=O)NCNC(=O)c1ccc(-c2ccc(C(=O)OC)cc2)o1 | < 126 nM | < 200 nM | < 398 nM | < 794 nM |  |
| CCCCC[C@H](CN(O)C=O)C(=O)NCNC(=O)c1ccc(-c2cccc(C(=O)NC)c2)o1 | < 126 nM | < 200 nM | < 398 nM | < 794 nM |  |
| CCCCC[C@@H](C(=O)NCNC(=O)c1ccc(-c2cncc(C(=O)O)c2)o1)[C@@H](CC)N(O)C=O | < 126 nM | < 200 nM | < 398 nM | < 794 nM |  |
| CCCCC[C@@H](C(=O)NCNC(=O)c1ccc(-c2ccc(C)c(C(=O)O)c2)o1)[C@@H](CC)N(O)C=O | < 126 nM | < 200 nM | < 398 nM | < 794 nM |  |
| CCCCC[C@H](CN(O)C=O)C(=O)NCNC(=O)c1ccc(-c2cccc(OC)n2)o1 | < 126 nM | < 200 nM | < 398 nM | < 794 nM |  |
| CCCCC[C@H](CN(O)C=O)C(=O)NCNC(=O)c1ccc(-c2cccc(C#N)c2)o1 | < 126 nM | < 200 nM | < 398 nM | < 794 nM |  |
| CCCCC[C@H](CN(O)C=O)C(=O)NCNC(=O)c1ccc(-c2cccc(OC)c2)o1 | < 126 nM | < 200 nM | < 398 nM | < 794 nM |  |
| CCOc1cc(C(=O)O)cc(-c2ccc(C(=O)NCNC(=O)CCN(O)C=O)o2)c1 | < 126 nM | < 200 nM | < 398 nM |  |  |
| O=CN(O)C[C@@H](CC1CCCC1)C(=O)NCNC(=O)c1ccc(-c2ccccc2)o1 | < 126 nM | < 200 nM | < 398 nM | < 794 nM |  |
| O=CN(O)C[C@@H](CCc1ccccc1)C(=O)NCNC(=O)c1ccc(-c2ccccc2)o1 | < 126 nM | < 200 nM | < 398 nM | < 794 nM |  |
| CCCCC[C@H](CN(O)C=O)C(=O)NCNC(=O)c1ccc(-c2ccc(OC)c(C(=O)O)c2)o1 | < 126 nM | < 200 nM | < 398 nM | < 794 nM |  |
| CCCCC[C@H](CN(O)C=O)C(=O)NCNC(=O)c1ccc(-c2ccccc2C(=O)O)o1 | < 126 nM | < 200 nM | < 398 nM | < 794 nM |  |
| CCCCC[C@H](CN(O)C=O)C(=O)NCNC(=O)c1ccc(-c2cccc(S(=O)(=O)N(C)C)c2)o1 | < 126 nM | < 200 nM | < 398 nM | < 794 nM |  |

From ChEMBL document CHEMBL4476867, “Hydroxy formamide derivatives and their use” (2016)
